Experimental data: PubChem BioAssay AID248 (DTP/NCI, 2004)
Several values for one entry are separate records, joined by “and”; a condition that tells them apart may be missing. Equal values may be shown once. Toxic doses and inconclusive results are not listed. No stated cut-off is given here; in the data, active means T/C of 150% or more; inactive means T/C below 125%.

Tested on: L1210 leukemia ip in BDF1 mice, survival T/C
Assay: NCI In Vivo Anticancer Drug Screen. Data for tumor model L1210 Leukemia (intraperitoneal) in B6D2F1 (BDF1) mice
Conditions: endpoint: mean survival time, higher = longer survival
Outline: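 Tumor was transplanted into mice, which were then dosed with test compound or vehicle alone. Survival was recorded for each group, and the treated figure was expressed relative to the control figure.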

[1] = dose: 50.0 mg/kg/injection, schedule: Q04DX003 (ip), vehicle: Klucel (hydroxypropylcellulose) (HPC)
[2] = dose: 100.0 mg/kg/injection, schedule: Q04DX003 (ip), vehicle: Klucel (hydroxypropylcellulose) (HPC)
[3] = dose: 200.0 mg/kg/injection, schedule: Q04DX003 (ip), vehicle: Klucel (hydroxypropylcellulose) (HPC)
[4] = dose: 400.0 mg/kg/injection, schedule: Q04DX003 (ip), vehicle: Klucel (hydroxypropylcellulose) (HPC)
[5] = dose: 100.0 mg/kg/injection, schedule: Q01DX001 (ip), vehicle: saline
[6] = dose: 200.0 mg/kg/injection, schedule: Q01DX001 (ip), vehicle: saline
[7] = dose: 400.0 mg/kg/injection, schedule: Q01DX001 (ip), vehicle: saline
[8] = dose: 100.0 mg/kg/injection, schedule: Q04DX003 (ip), vehicle: saline
[9] = dose: 200.0 mg/kg/injection, schedule: Q04DX003 (ip), vehicle: saline
[10] = dose: 75.0 mg/kg/injection, schedule: Q01DX001 (ip), vehicle: saline
[11] = dose: 100.0 mg/kg/injection, schedule: Q01DX001 (ip), vehicle: other
[12] = dose: 200.0 mg/kg/injection, schedule: Q01DX001 (ip), vehicle: other
[13] = dose: 400.0 mg/kg/injection, schedule: Q01DX001 (ip), vehicle: other
[14] = dose: 100.0 mg/kg/injection, schedule: Q01DX009 (ip), vehicle: saline with Tween-80
[15] = dose: 100.0 mg/kg/injection, schedule: Q04DX003 (ip), vehicle: saline with Tween-80
[16] = dose: 200.0 mg/kg/injection, schedule: Q01DX009 (ip), vehicle: saline with Tween-80
[17] = dose: 200.0 mg/kg/injection, schedule: Q04DX003 (ip), vehicle: saline with Tween-80
[18] = dose: 400.0 mg/kg/injection, schedule: Q04DX003 (ip), vehicle: saline with Tween-80
[19] = dose: 100.0 mg/kg/injection, schedule: Q01DX001 (ip), vehicle: saline with Tween-80
[20] = dose: 200.0 mg/kg/injection, schedule: Q01DX001 (ip), vehicle: saline with Tween-80
[21] = dose: 400.0 mg/kg/injection, schedule: Q01DX001 (ip), vehicle: saline with Tween-80

Measured: T/C

N#CC(C#N)=Cc1ccc(C=C(C#N)C#N)cc1
inactive: dose: 25.0 mg/kg/injection, schedule: Q04DX003 (ip), vehicle: Klucel (hydroxypropylcellulose) (HPC) 98 % of control | dose: 50.0 mg/kg/injection, schedule: Q01DX009 (ip), vehicle: Klucel (hydroxypropylcellulose) (HPC) 103 % of control | [1] 98 % of control | dose: 100.0 mg/kg/injection, schedule: Q01DX009 (ip), vehicle: Klucel (hydroxypropylcellulose) (HPC) 86 % of control | [2] 98 % of control and 105 % of control | [3] 100 % of control | [4] 108 % of control

O=C(NCCF)NC1C(O)OC(CO)C(O)C1O (centres undefined)
inactive: [5] 102 % of control | [6] 101 % of control | [7] 98 % of control

CCOP(=O)(CC(=O)OC)OCC
inactive: dose: 50.0 mg/kg/injection, schedule: Q04DX003 (ip), vehicle: saline 102 % of control | dose: 100.0 mg/kg/injection, schedule: Q01DX009 (ip), vehicle: saline 103 % of control | [8] 100 % of control | dose: 200.0 mg/kg/injection, schedule: Q01DX009 (ip), vehicle: saline 101 % of control | [9] 102 % of control | dose: 400.0 mg/kg/injection, schedule: Q01DX009 (ip), vehicle: saline 88 % of control | dose: 400.0 mg/kg/injection, schedule: Q04DX003 (ip), vehicle: saline 102 % of control

O=c1[nH]nc(-c2ccc(Cl)c(Cl)c2)s1
inactive: [10] 95 % of control | dose: 75.0 mg/kg/injection, schedule: Q04DX003 (ip), vehicle: saline 95 % of control | dose: 150.0 mg/kg/injection, schedule: Q01DX001 (ip), vehicle: saline 92 % of control | dose: 150.0 mg/kg/injection, schedule: Q04DX003 (ip), vehicle: saline 95 % of control | dose: 300.0 mg/kg/injection, schedule: Q01DX001 (ip), vehicle: saline 92 % of control | dose: 300.0 mg/kg/injection, schedule: Q04DX003 (ip), vehicle: saline 96 % of control

CC1=C(C)C2(C)C1(C)C1(C)C(C)=C(C)C21C (centres undefined)
inactive: dose: 100.0 mg/kg/injection, schedule: Q01DX009 (ip), vehicle: acetone 86 % of control | dose: 200.0 mg/kg/injection, schedule: Q01DX009 (ip), vehicle: acetone 86 % of control

[I][Sn]([c]1ccccc1)([c]1ccccc1)[c]1ccccc1
inactive: dose: 0.25 mg/kg/injection, schedule: Q01DX009 (ip), vehicle: Klucel (hydroxypropylcellulose) (HPC) 93 % of control | dose: 0.5 mg/kg/injection, schedule: Q01DX009 (ip), vehicle: Klucel (hydroxypropylcellulose) (HPC) 101 % of control | dose: 1.0 mg/kg/injection, schedule: Q01DX009 (ip), vehicle: Klucel (hydroxypropylcellulose) (HPC) 97 % of control

Cc1nc(N)nc2c1CCC(Nc1ccccc1)S2 (centres undefined)
inactive: [2] 106 % of control | [3] 103 % of control | [4] 92 % of control

O=c1[nH]cnc2ccc([N+](=O)[O-])cc12
inactive: [1] 101 % of control | [2] 103 % of control

C/C(=N/OC(=O)N(C)C)c1ccc(Cl)c(Cl)c1
inactive: [11] 96 % of control | [12] 98 % of control

O=[N+]([O-])c1ccc(N2CCCCC2)cc1
inactive: [11] 108 % of control | [2] 107 % of control | [12] 90 % of control | [3] 104 % of control | dose: 222.0 mg/kg/injection, schedule: Q01DX Z (ip), vehicle: methylcellulose (MC) 102 % of control | dose: 333.0 mg/kg/injection, schedule: Q01DX Z (ip), vehicle: methylcellulose (MC) 94 % of control | [13] 103 % of control | [4] 107 % of control | dose: 500.0 mg/kg/injection, schedule: Q01DX Z (ip), vehicle: methylcellulose (MC) 100 % of control

O=C(c1ccccc1)c1cc(=O)[nH]c(=O)[nH]1
inactive: dose: 47.5 mg/kg/injection, schedule: Q01DX001 (ip), vehicle: Klucel (hydroxypropylcellulose) (HPC) 100 % of control | dose: 95.0 mg/kg/injection, schedule: Q01DX001 (ip), vehicle: Klucel (hydroxypropylcellulose) (HPC) 102 % of control | dose: 190.0 mg/kg/injection, schedule: Q01DX001 (ip), vehicle: Klucel (hydroxypropylcellulose) (HPC) 98 % of control

CC1(N)CC2CCC1C2 (centres undefined)
inactive: [8] 96 % of control | [9] 92 % of control

CCOC(=O)C(=Cc1c[nH]c2ccccc12)C(=O)OCC
inactive: [14] 108 % of control | [15] 96 % of control | [16] 90 % of control | [17] 96 % of control | dose: 400.0 mg/kg/injection, schedule: Q01DX009 (ip), vehicle: saline with Tween-80 92 % of control | [18] 96 % of control

CC([NH-])C(=O)[O-].[K+].[O]=[Co][O-] (centres undefined)
inactive: [10] 107 % of control

CCCN(CCC)/N=N/c1nc[nH]c1C(N)=O
inactive: [19] 95 % of control | [14] 97 % of control | [15] 101 % of control | [20] 98 % of control | [16] 106 % of control | [17] 104 % of control | [21] 113 % of control | [18] 112 % of control

C=CC[Si](C)(C)N1CC1
inactive: dose: 12.5 mg/kg/injection, schedule: Q01DX001 (ip), vehicle: carboxymethylcellulose (CMC) 108 % of control

O=C(OCCN1CCCCCCCC1)C(c1ccccc1)c1ccccc1
inactive: [11] 101 % of control | [12] 90 % of control | [13] 110 % of control

C/C(=C\C(C)(C)c1ccccc1)c1ccccc1 (tested in a mixture with another compound)
inactive: dose: 50.0 mg/kg/injection, schedule: Q01DX001 (ip), vehicle: saline 90 % of control | [5] 96 % of control | [6] 113 % of control | [7] 116 % of control

CCCCCCCCCCCCOC(=O)NCCCl
inactive: [19] 103 % of control | [20] 102 % of control | [21] 103 % of control

CCN(c1ccc2c(c1)C(=O)c1ccccc1-2)S(=O)(=O)c1ccc(C)cc1
inactive: [2] 96 % of control | [3] 98 % of control | [4] 98 % of control

O=C(NCc1cnccn1)c1ccco1
inactive: dose: 50.0 mg/kg/injection, schedule: Q01DX005 (ip), vehicle: saline 109 % of control | dose: 100.0 mg/kg/injection, schedule: Q01DX005 (ip), vehicle: saline 111 % of control | dose: 200.0 mg/kg/injection, schedule: Q01DX005 (ip), vehicle: saline 104 % of control

CCCCCN(C(=N)CCCC)S(=O)(=O)c1ccccc1
inactive: [5] 89 % of control | [6] 95 % of control | [7] 106 % of control

Cc1ccc(C#N)cc1.Cc1ccc(C#N)cc1.[Cl][Pt][Cl]
inactive: dose: 6.25 mg/kg/injection, schedule: Q04DX003 (ip), vehicle: water 109 % of control | dose: 12.5 mg/kg/injection, schedule: Q04DX003 (ip), vehicle: water 109 % of control | dose: 25.0 mg/kg/injection, schedule: Q04DX003 (ip), vehicle: water 106 % of control | dose: 50.0 mg/kg/injection, schedule: Q04DX003 (ip), vehicle: water 105 % of control

N#C/C(=C\c1ccc(-c2ccccc2)cc1)c1ccc([N+](=O)[O-])cc1
inactive: dose: 12.5 mg/kg/injection, schedule: Q01DX009 (ip), vehicle: saline with Tween-80 90 % of control | dose: 12.5 mg/kg/injection, schedule: Q04DX003 (ip), vehicle: saline with Tween-80 95 % of control | dose: 25.0 mg/kg/injection, schedule: Q01DX009 (ip), vehicle: saline with Tween-80 88 % of control | dose: 25.0 mg/kg/injection, schedule: Q04DX003 (ip), vehicle: saline with Tween-80 93 % of control | dose: 50.0 mg/kg/injection, schedule: Q04DX003 (ip), vehicle: saline with Tween-80 88 % of control

O=C(O)Cc1cc([N+](=O)[O-])c(O)c([N+](=O)[O-])c1
inactive: dose: 100.0 mg/kg/injection, schedule: Q01DX009 (ip), vehicle: saline sonified 101 % of control | [2] 95 % of control | dose: 200.0 mg/kg/injection, schedule: Q01DX009 (ip), vehicle: saline sonified 102 % of control | [3] 88 % of control | dose: 400.0 mg/kg/injection, schedule: Q01DX009 (ip), vehicle: saline sonified 102 % of control | [4] 93 % of control
